Target: Induced myeloid leukemia cell differentiation protein Mcl-1 (Homo sapiens, UniProt Q07820)
Assay: Bcl-2 and Bcl-xL Inhibition Assay
Method: Fluorescence polarization values were measured using the Infinite M-1000 plate reader (Tecan U.S., Research Triangle Park, N.C.) in Microfluor 1 96-well, black, round-bottom plates (Thermo Scientific). […] Plates were mixed and incubated at room temperature for 1 hour with gentle shaking to assure equilibrium. […] Equilibrium dissociation constants (Kd) were then calculated by fitting the sigmoidal dose-dependent FP increases as a function of protein concentrations using Graphpad Prism 5.0 software (Graphpad Software, San Diego, Calif.).

Induced myeloid leukemia cell differentiation protein Mcl-1, sequence (Q07820 whole entry): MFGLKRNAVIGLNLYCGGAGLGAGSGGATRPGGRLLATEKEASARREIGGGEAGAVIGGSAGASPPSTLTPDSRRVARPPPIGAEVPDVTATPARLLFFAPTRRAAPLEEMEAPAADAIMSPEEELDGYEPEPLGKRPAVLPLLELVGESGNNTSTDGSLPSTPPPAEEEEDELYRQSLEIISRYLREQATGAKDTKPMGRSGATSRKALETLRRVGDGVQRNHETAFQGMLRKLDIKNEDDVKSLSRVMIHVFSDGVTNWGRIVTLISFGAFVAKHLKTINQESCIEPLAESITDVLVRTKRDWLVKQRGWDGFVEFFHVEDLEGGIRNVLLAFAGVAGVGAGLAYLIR

O=C(NS(=O)(=O)c1ccc(NC[C@@H]2COCCO2)c([N+](=O)[O-])c1)c1ccc(N2CCN(CC3=C(c4ccc(Cl)cc4)CC4(CCC4)CC3)CC2)cc1Oc1cnc2[nH]ccc2c1 [US11718613, Compound 13]
IC50: > 5 µM

— BindingDB's records for patent US11718613 (University of Michigan, 2023)
